Test results: patent US7056947B2, “Aza-peptide epoxides” (Georgia Tech Research Corp., priority 2002, dated 2006)

molecular target: T1, caspase-1 (Homo sapiens, UniProt P29466, D381E); experiment: Caspase-1 progress curve assay; format: biochemical; details: D381E variant, substrate Ac-YVAD-AMC, 30° C.
T1 construct: His tag (N); made in house; host or cells: E. coli
T1 sequence (P29466 120-297 limits assumed): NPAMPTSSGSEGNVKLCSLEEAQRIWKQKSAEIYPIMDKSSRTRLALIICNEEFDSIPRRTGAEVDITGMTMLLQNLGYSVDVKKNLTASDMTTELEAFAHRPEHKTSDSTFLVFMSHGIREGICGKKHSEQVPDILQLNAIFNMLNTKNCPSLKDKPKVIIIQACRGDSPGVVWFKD
T1 sequence (P29466 317-404 D381E limits assumed): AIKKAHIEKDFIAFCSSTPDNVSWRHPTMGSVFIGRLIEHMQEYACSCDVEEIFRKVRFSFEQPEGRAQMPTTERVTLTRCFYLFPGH
Description: Caspase-1. The preparation of the autolytically stable caspase-1 variant used in these studies has been described previously. Briefly, the variant contains a mutation (D381E) which renders it resistant to autolytic inactivation, but has no detectable affect on enzyme activity as compared to the naturally occurring enzyme. The enzyme variant was expressed in E. coli, purified first by immobilized metal chromatography via the N-terminal N-His tag, treated with excess oxidized glutathione to stabilize the reactive thiolate, and then re-purified by size-exclusion chromatography.
Inhibition data was measured using the progress curve assay method. Serial dilutions of each compound were prepared using an initial 8-fold dilution of a DMSO stock into HGE (100 mM HEPES,20% glycerol v/v, 0.5 mM EDTA), followed by seven serial two-fold dilutions into HGE and 12.5% DMSO, thus maintaining constant DMSO through the dilution series. Ten μL of diluted stocks or of vehicle (HGE and 12.5% DMSO) were placed in triplicate onto a 96-well microtiter plate, allowing several compounds to be tested on each plate. The plate was covered to minimize evaporation, and the plate was pre-warmed to 30° C. for 20 minutes. Enzyme was diluted into 10.0 mL of assay buffer (HGE, 5 mM DTT, plus 15 μM Ac-YVAD-AMC, 2 nM approximate final enzyme concentration), and this activated reaction mixture was added to the plate at 90 μL/well. Progress of substrate hydrolysis was monitored for 900 s in a LabSystems (Needham, Mass.) Fluoroskan Ascent fluorescent plate-reader using 385 and 460 nm excitation and emission filters, respectively, and a photomultiplier gain setting of 10. Triplicate curves were averaged and fit by nonlinear regression to the equation for irreversible inactivation shown below.
[formula] where F0 was routinely fixed to zero, since fluorescence values were always adjusted to an origin of 0. The second order rate constant kon (M^−1s^−1) was obtained from the slopes by linear regression, and errors represent the standard deviation of the regression slope.

| SMILES | k2 caspase-1 |
| --- | --- |
| CC(C)[C@H](NC(=O)CCc1ccccc1)C(=O)N[C@@H](C)C(=O)NN(CC(=O)O)C(=O)[C@@H]1O[C@H]1C(=O)NCCc1ccccc1 [23h (R,R), (2R,3R)-2-(2-Phenethylcarbamoyl)-3-(N^2-(3-phenylpropanoylvalylalanyl)-N^1-carboxymethylhydrazinocarbonyl)oxirane] | 950 ± 51 M⁻¹ s⁻¹ |
| CC(C)[C@H](NC(=O)CCc1ccccc1)C(=O)N[C@@H](C)C(=O)NN(CC(=O)O)C(=O)[C@H]1O[C@@H]1C(=O)NC(Cc1ccccc1)C(N)=O (stereo partly drawn) [23l (S,S), (2S,3S)-2-(1-Amido-phenethylcarbamoyl)-3-(N^2-(3-phenylpropanoylvalylalanyl)-N^1-carboxymethylhydrazinocarbonyl)oxirane] | 32740 ± 9937 M⁻¹ s⁻¹ |
| CC(C)[C@H](NC(=O)CCc1ccccc1)C(=O)N[C@@H](C)C(=O)NN(CC(=O)O)C(=O)[C@@H]1O[C@H]1C(=O)OCc1ccccc1 [23d (R,R), (2R,3R)-3-(N^2-(3-Phenylpropanoylvalylalanyl)-N^1-carboxymethylhydrazinocarbonyl)oxirane-2-carboxylic Acid Benzyl Ester] | 1860 ± 302 M⁻¹ s⁻¹ |
| CC(C)[C@H](NC(=O)CCc1ccccc1)C(=O)N[C@@H](C)C(=O)NN(CC(=O)O)C(=O)[C@@H]1O[C@H]1CCc1ccccc1 (relative stereo) [23a, trans-3-(N^2-(N-3-Phenylpropanoylvalylalanyl)-N^1-carboxylmethylhydrazinocarbonyl)-2-(2-phenylethyl)oxirane] | 300 ± 144 M⁻¹ s⁻¹ |
| CC(C)[C@H](NC(=O)CCc1ccccc1)C(=O)N[C@@H](C)C(=O)NN(CC(=O)O)C(=O)[C@@H]1O[C@H]1C(=O)NC(Cc1ccccc1)C(N)=O (stereo partly drawn) [23l (R,R), (2R,3R)-2-(1-Amido-phenethylcarbamoyl)-3-(N^2-(3-phenylpropanoylvalylalanyl)-N^1-carboxymethylhydrazinocarbonyl)oxirane] | 330 M⁻¹ s⁻¹ |
| CC(NC(=O)[C@@H]1O[C@H]1C(=O)N(CC(=O)O)NC(=O)[C@H](C)NC(=O)[C@@H](NC(=O)CCc1ccccc1)C(C)C)C(=O)NCc1ccccc1 (stereo partly drawn) [23j (R,R), (2R,3R)-2-(1-Benzylcarbamoylethylcarbamoyl)-3-(N^2-(3-phenylpropanoylvalylalanyl)-N^1-carboxymethylhydrazinocarbonyl)oxirane] | 268 ± 75 M⁻¹ s⁻¹ |

Now from value to compound:

| k2 caspase-1 | SMILES |
| --- | --- |
| 12372 M⁻¹ s⁻¹ | CCOC(=O)[C@H]1O[C@@H]1C(=O)N(CC(=O)O)NC(=O)[C@@H](NC(=O)[C@H](CCC(=O)O)NC(=O)[C@@H](NC(=O)OCc1ccccc1)[C@@H](C)CC)[C@@H](C)O [27c (S,S), (2S,3S)-3-(N^2-(N-Benzyloxycarbonylisoleucylglutamylthreonyl)-N^1-carboxymethylhydrazinocarbonyl)oxirane-2-carboxylic Acid Ethyl Ester] |
| 41070 ± 440 M⁻¹ s⁻¹ | CC(C)[C@H](NC(=O)[C@H](CCC(=O)O)NC(=O)OCc1ccccc1)C(=O)NN(CC(=O)O)C(=O)[C@H]1O[C@@H]1C(=O)NCCc1ccccc1 [24h, (2S,3S)-2-(2-Phenethylcarbamoyl)-3-(N^2-(N-benzyloxycarbonylglutamylvalyl)-N^1-carboxymethylhydrazinocarbonyl)oxirane] |
| 45788 M⁻¹ s⁻¹ | CC[C@H](C)[C@H](NC(=O)OCc1ccccc1)C(=O)N[C@@H](CCC(=O)O)C(=O)N[C@H](C(=O)NN(CC(=O)O)C(=O)[C@H]1O[C@@H]1C(=O)OCc1ccccc1)[C@@H](C)O [27d (S,S), (2S,3S)-3-(N^1-(N-Benzyloxycarbonylisoleucylglutamylthreonyl)-N^1-carboxymethylhydrazinocarbonyl)oxirane-2-carboxylic Acid Benzyl Ester] |
| 1630 ± 522 M⁻¹ s⁻¹ | CC(NC(=O)C(NC(=O)CCc1ccccc1)C(C)C)C(=O)NN(CC(=O)O)C(=O)[C@@H]1O[C@H]1C(=O)NCc1ccccc1 (stereo partly drawn) [23g (R,R), (2R,3R)-2-(2-Benzylcarbamoyl)-3-(N^2-(3-phenylpropanoylvalylalanyl)-N^1-carboxymethylhydrazinocarbonyl)oxirane] |
| 6290 ± 1524 M⁻¹ s⁻¹ | CCOC(=O)[C@@H]1O[C@H]1C(=O)N(CC(=O)O)NC(=O)[C@H](C)NC(=O)[C@@H](NC(=O)CCc1ccccc1)C(C)C [23c (R,R)] |
| 400 ± 19 M⁻¹ s⁻¹ | CC(C)[C@H](NC(=O)CCc1ccccc1)C(=O)N[C@@H](C)C(=O)NN(CC(=O)O)C(=O)[C@@H]1O[C@H]1C(=O)NCC(O)c1ccccc1 (stereo partly drawn) [23i (R,R), (2R,3R)-2-(2-Hydroxy-2-phenylethylcarbamoyl)-3-(N^2-(3-phenylpropanoylvalylalanyl)-N^1-carboxymethylhydrazinocarbonyl)oxirane] |

molecular target: T2, caspase-3 (Homo sapiens, UniProt P42574); experiment: Caspase-3 progress curve assay; format: biochemical; details: substrate Z-DEVD-AFC; NI = no inhibition
T2 construct: made in house; host or cells: E. coli
T2 sequence (P42574 29-175 limits assumed): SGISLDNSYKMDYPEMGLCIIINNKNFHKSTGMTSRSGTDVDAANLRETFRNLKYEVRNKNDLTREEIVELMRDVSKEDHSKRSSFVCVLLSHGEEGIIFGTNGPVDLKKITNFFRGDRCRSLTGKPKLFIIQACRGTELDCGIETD
T2 sequence (P42574 176-277 limits assumed): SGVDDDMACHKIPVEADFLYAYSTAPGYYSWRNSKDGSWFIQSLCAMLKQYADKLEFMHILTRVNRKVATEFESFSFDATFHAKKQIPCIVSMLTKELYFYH
Experimental: Caspase-3, -6, and -8. Caspase-3, -6 and -8 were expressed in E. coli and purified according to methods previously described by Stennicke and Salvesen. Assays using the fluorogenic substrate Z-DEVD-AFC (λex=400 nm, λem=505 nm) were carried out on a Molecular Devices fMax fluorescence microplate reader. Inhibition rates and equilibria were determined by the progress curve method. The standard 100 μL reaction was started by adding enzyme to a mixture of substrate (final concentration of Z-DEVD-AFC 100 μM) and various amounts of inhibitor in buffer (50 mM Hepes, 100 mM NaCl, 0.1% (w/v) CHAPS, sucrose 10% (w/v), and 10 mM DTT, at pH 7.4). The caspases were pre-activated for 10 min at 37° C. in the presence of 10 mM DTT.

| SMILES | k2 caspase-3 |
| --- | --- |
| CC(C)[C@H](NC(=O)CCc1ccccc1)C(=O)N[C@@H](C)C(=O)NN(CC(=O)O)C(=O)[C@H]1O[C@@H]1C(=O)NC(Cc1ccccc1)C(N)=O (stereo partly drawn) [23l (S,S), (2S,3S)-2-(1-Amido-phenethylcarbamoyl)-3-(N^2-(3-phenylpropanoylvalylalanyl)-N^1-carboxymethylhydrazinocarbonyl)oxirane] | 625 ± 160 M⁻¹ s⁻¹ |
| CC(C)C(NC(=O)OCc1ccccc1)C(=O)NN(CC(=O)O)C(=O)C1OC1C(=O)O [22n, Cbz-Val-AAsp-(S,S)-EP-COOH] | 1110 ± 340 M⁻¹ s⁻¹ |
| CC(C)C[C@H](NC(=O)OCc1ccccc1)C(=O)N[C@@H](CCC(=O)O)C(=O)N[C@H](C(=O)NN(CC(=O)O)C(=O)[C@H]1O[C@@H]1C(=O)NC(C)C(=O)NCc1ccccc1)[C@@H](C)O (stereo partly drawn) [26j, (2S,3S)-2-(1-Benzylcarbamoyl-ethylcarbamoyl)-3-(N^2-(N-benzyloxycarbonylleucylglutamylthreonyl)-N^1-carboxymethylhydrazinocarbonyl)oxirane] | 1280 ± 77 M⁻¹ s⁻¹ |

Further lines, results first:

| k2 caspase-3 | SMILES |
| --- | --- |
| 4080 ± 360 M⁻¹ s⁻¹ | CCOC(=O)[C@H]1O[C@@H]1C(=O)N(CC(=O)O)NC(=O)[C@@H](NC(=O)[C@H](CCC(=O)O)NC(=O)[C@@H](NC(=O)OCc1ccccc1)[C@@H](C)CC)[C@@H](C)O [27c (S,S), (2S,3S)-3-(N^2-(N-Benzyloxycarbonylisoleucylglutamylthreonyl)-N^1-carboxymethylhydrazinocarbonyl)oxirane-2-carboxylic Acid Ethyl Ester] |
| 27330 ± 5430 M⁻¹ s⁻¹ | CC(C)[C@H](NC(=O)[C@H](CCC(=O)O)NC(=O)OCc1ccccc1)C(=O)NN(CC(=O)O)C(=O)[C@H]1O[C@@H]1C(=O)NCCc1ccccc1 [24h, (2S,3S)-2-(2-Phenethylcarbamoyl)-3-(N^2-(N-benzyloxycarbonylglutamylvalyl)-N^1-carboxymethylhydrazinocarbonyl)oxirane] |
| 9545 ± 960 M⁻¹ s⁻¹ | CC[C@H](C)[C@H](NC(=O)OCc1ccccc1)C(=O)N[C@@H](CCC(=O)O)C(=O)N[C@H](C(=O)NN(CC(=O)O)C(=O)[C@H]1O[C@@H]1C(=O)OCc1ccccc1)[C@@H](C)O [27d (S,S), (2S,3S)-3-(N^1-(N-Benzyloxycarbonylisoleucylglutamylthreonyl)-N^1-carboxymethylhydrazinocarbonyl)oxirane-2-carboxylic Acid Benzyl Ester] |
| 2550 ± 25 M⁻¹ s⁻¹ | CC(C)C[C@H](NC(=O)OCc1ccccc1)C(=O)N[C@@H](CCC(=O)O)C(=O)N[C@H](C(=O)NN(CC(=O)O)C(=O)[C@H]1O[C@@H]1C(=O)NCCc1ccccc1)[C@@H](C)O [26h, (2S,3S)-2-(2-Phenethylcarbamoyl)-3-(N^2-(N -benzyloxycarbonylleucylglutamylthreonyl)-N^1-carboxymethylhydrazinocarbonyl)oxirane] |
| 3050 M⁻¹ s⁻¹ | CC[C@H](C)[C@H](NC(=O)OCc1ccccc1)C(=O)N[C@@H](CCC(=O)O)C(=O)N[C@H](C(=O)NN(CC(=O)O)C(=O)[C@H]1O[C@@H]1C(=O)NC(C)C(=O)NCc1ccccc1)[C@@H](C)O (stereo partly drawn) [27j, (2S,3S)-2-(1-Benzylcarbamoyl-ethylcarbamoyl)-3-(N^2-(N-benzyloxycarbonylisoleucylglutamylthreonyl)-N^1-carboxymethylhydrazinocarbonyl)oxirane] |
| 310 ± 5 M⁻¹ s⁻¹ | CC(C)C(NC(=O)OCc1ccccc1)C(=O)NN(CC(=O)O)C(=O)C1OC1CCc1ccccc1 (stereo not drawn) [22a, Cbz-Val-AAsp-(trans)-EP-CH2CH2Ph] |
| 145 ± 18 M⁻¹ s⁻¹ | CC(C)[C@H](NC(=O)OCc1ccccc1)C(=O)NN(CC(=O)O)C(=O)[C@@H]1O[C@H]1c1ccc(Cl)cc1 (relative stereo) [22b, trans-2-(N^2-(N-Benzyloxycarbonylvalyl)-N^1-carboxymethylhydrazinocarbonyl)-3-(4-chlorophenyl)oxirane] |
| 3650 ± 570 M⁻¹ s⁻¹ | CCOC(=O)C1OC1C(=O)N(CC(=O)O)NC(=O)C(NC(=O)OCc1ccccc1)C(C)C [22c, Cbz-Val-AAsp-(S,S)-EP-COOEt] |
| 1910 ± 370 M⁻¹ s⁻¹ | CCNC(=O)[C@H]1O[C@@H]1C(=O)N(CC(=O)O)NC(=O)[C@H](C)NC(=O)[C@@H](NC(=O)CCc1ccccc1)C(C)C [23f, (2S,3S)-2-(2-Ethylcarbamoyl)-3-(N^2-(3-phenylpropanoylvalylalanyl)-N^1-carboxymethylhydrazinocarbonyl)oxirane] |
